Results taken from PMC5218480 (PLoS ONE, 2017).

Test system: MV-4-11 cells
Experiment: Gene expression microarray analysis (Affymetrix PrimeView) and GSEA
Format: cell-based, human
Design: RFU PODN (11730768_x_at) / Fold change /veh PODN (11730768_x_at) / RFU LINC00158 (11744669_a_at) / Fold change /veh LINC00158 (11744669_a_at) / RFU DUSP10 (11751237_a_at) / Fold change /veh DUSP10 (11751237_a_at) / RFU ID3 (11757404_x_at) / Fold change /veh ID3 (11757404_x_at) / RFU PLEKHG5 (11737974_s_at) / Fold change /veh PLEKHG5 (11737974_s_at) / RFU LRRC4B (11730491_at) / Fold change /veh LRRC4B (11730491_at) / RFU GIMAP4 (11747438_a_at) / Fold change /veh GIMAP4 (11747438_a_at) / RFU KRT8 (11758183_x_at) / Fold change /veh KRT8 (11758183_x_at) / RFU CNN1 (11734310_a_at) / Fold change /veh CNN1 (11734310_a_at) / RFU VPS37D (11726825_at) / Fold change /veh VPS37D (11726825_at) / RFU C10orf10 (11716522_x_at) / Fold change /veh C10orf10 (11716522_x_at) / RFU KIR2DL2 /// KIR2DL4 /// KIR2DL5A /// KIR2DL5B /// KIR2DS1 /// KIR2DS2 /// KIR2DS3 /// KIR2DS4 /// KIR3DL3 /// KIR3DL3 /// KIR3DS1 (11738374_at) / Fold change /veh KIR2DL2 /// KIR2DL4 /// KIR2DL5A /// KIR2DL5B /// KIR2DS1 /// KIR2DS2 /// KIR2DS3 /// KIR2DS4 /// KIR3DL3 /// KIR3DL3 /// KIR3DS1 (11738374_at) / RFU C1QL1 (11718748_at) / Fold change /veh C1QL1 (11718748_at) / RFU TMPRSS4 (11747572_a_at) / Fold change /veh TMPRSS4 (11747572_a_at) / RFU HAMP (11756126_x_at) / Fold change /veh HAMP (11756126_x_at) / RFU RNFT2 (11725882_a_at) / Fold change /veh RNFT2 (11725882_a_at) / RFU NR4A2 (11747474_a_at) / Fold change /veh NR4A2 (11747474_a_at) / RFU ABCC12 (11746883_a_at) / Fold change /veh ABCC12 (11746883_a_at) / RFU TMEM136 (11760407_x_at) / Fold change /veh TMEM136 (11760407_x_at) / RFU CLDN22 /// WWC2 (11732394_at) / Fold change /veh CLDN22 /// WWC2 (11732394_at) / RFU HLA-DPB1 (11760878_x_at) / Fold change /veh HLA-DPB1 (11760878_x_at) / RFU SPINT1 (11716480_a_at) / Fold change /veh SPINT1 (11716480_a_at) / RFU GAP43 (11754022_s_at) / Fold change /veh GAP43 (11754022_s_at) / RFU A4GNT (11735810_at) / Fold change /veh A4GNT (11735810_at) / RFU PRB3 (11715151_x_at) / Fold change /veh PRB3 (11715151_x_at) / RFU TUBB4B (11761932_at) / Fold change /veh TUBB4B (11761932_at) / RFU CAPN14 (11732068_a_at) / Fold change /veh CAPN14 (11732068_a_at) / RFU TMCC2 (11721928_a_at) / Fold change /veh TMCC2 (11721928_a_at) / RFU IRGQ (11745062_a_at) / Fold change /veh IRGQ (11745062_a_at) / RFU FAM174B (11720279_a_at) / Fold change /veh FAM174B (11720279_a_at) / RFU TMPRSS4 (11748680_a_at) / Fold change /veh TMPRSS4 (11748680_a_at) / RFU FAM212B (11763350_a_at) / Fold change /veh FAM212B (11763350_a_at) / RFU PLEKHG5 (11743358_a_at) / Fold change /veh PLEKHG5 (11743358_a_at) / RFU ZSCAN30 (11745921_a_at) / Fold change /veh ZSCAN30 (11745921_a_at) / RFU CMKLR1 (11741424_a_at) / Fold change /veh CMKLR1 (11741424_a_at) / RFU LOC101060620 /// MAPK8IP1 (11723275_at) / Fold change /veh LOC101060620 /// MAPK8IP1 (11723275_at) / RFU SPTSSB (11747773_x_at) / Fold change /veh SPTSSB (11747773_x_at) / RFU PRSS12 (11739890_at) / Fold change /veh PRSS12 (11739890_at) / RFU BIN1 (11741810_x_at) / Fold change /veh BIN1 (11741810_x_at) / RFU WNT11 (11732464_a_at) / Fold change /veh WNT11 (11732464_a_at) / RFU C10orf10 (11716521_a_at) / Fold change /veh C10orf10 (11716521_a_at) / RFU C5orf56 (11738089_at) / Fold change /veh C5orf56 (11738089_at) / RFU CYB561 (11721691_x_at) / Fold change /veh CYB561 (11721691_x_at) / RFU ANKRD19P (11752326_a_at) / Fold change /veh ANKRD19P (11752326_a_at) / RFU OR2T12 /// OR2T33 /// OR2T8 (11738714_s_at) / Fold change /veh OR2T12 /// OR2T33 /// OR2T8 (11738714_s_at) / RFU VCAN (11748164_a_at) / Fold change /veh VCAN (11748164_a_at) / RFU JSRP1 (11732532_at) / Fold change /veh JSRP1 (11732532_at) / RFU KRTAP10-11 (11738290_x_at) / Fold change /veh KRTAP10-11 (11738290_x_at) / RFU MYO3A (11730013_a_at) / Fold change /veh MYO3A (11730013_a_at) / RFU EBF3 (11725865_a_at) / Fold change /veh EBF3 (11725865_a_at) / RFU CAMK2N1 (11719241_x_at) / Fold change /veh CAMK2N1 (11719241_x_at) / RFU C5orf56 (11738088_a_at) / Fold change /veh C5orf56 (11738088_a_at) / RFU OLFML3 (11715873_a_at) / Fold change /veh OLFML3 (11715873_a_at) / RFU LOC100653217 /// NTM (11731650_a_at) / Fold change /veh LOC100653217 /// NTM (11731650_a_at) / RFU MAPK11 (11762145_a_at) / Fold change /veh MAPK11 (11762145_a_at) / RFU FIZ1 (11724087_x_at) / Fold change /veh FIZ1 (11724087_x_at) / RFU OASL (11726364_x_at) / Fold change /veh OASL (11726364_x_at) / RFU SOX15 (11748057_x_at) / Fold change /veh SOX15 (11748057_x_at) / RFU CD79A (11719716_a_at) / Fold change /veh CD79A (11719716_a_at) / RFU HIST1H1D (11736915_at) / Fold change /veh HIST1H1D (11736915_at) / RFU CASKIN2 (11723855_a_at) / Fold change /veh CASKIN2 (11723855_a_at) / RFU LOC730098 (11760151_x_at) / Fold change /veh LOC730098 (11760151_x_at) / RFU OR4N2 (11742367_at) / Fold change /veh OR4N2 (11742367_at) / RFU PRRT2 (11749266_a_at) / Fold change /veh PRRT2 (11749266_a_at) / RFU SNX32 (11753110_a_at) / Fold change /veh SNX32 (11753110_a_at) / RFU CDHR5 (11726645_a_at) / Fold change /veh CDHR5 (11726645_a_at) / RFU RCAN1 (11760418_a_at) / Fold change /veh RCAN1 (11760418_a_at) / RFU FAM167A (11723789_a_at) / Fold change /veh FAM167A (11723789_a_at) / RFU FAM26E (11764081_at) / Fold change /veh FAM26E (11764081_at) / RFU ISYNA1 (11749810_s_at) / Fold change /veh ISYNA1 (11749810_s_at) / RFU ACY1 (11761880_at) / Fold change /veh ACY1 (11761880_at) / RFU 11764098_at / Fold change /veh 11764098_at / RFU SAMD14 (11745864_x_at) / Fold change /veh SAMD14 (11745864_x_at) / RFU NPB (11741838_a_at) / Fold change /veh NPB (11741838_a_at) / RFU TMPRSS6 (11731388_a_at) / Fold change /veh TMPRSS6 (11731388_a_at) / RFU KRTAP10-2 (11738614_at) / Fold change /veh KRTAP10-2 (11738614_at) / RFU ARHGAP8 /// PRR5-ARHGAP8 (11727945_x_at) / Fold change /veh ARHGAP8 /// PRR5-ARHGAP8 (11727945_x_at) / RFU KRTAP5-7 /// NADSYN1 (11734609_at) / Fold change /veh KRTAP5-7 /// NADSYN1 (11734609_at) / RFU RASL12 (11751679_a_at) / Fold change /veh RASL12 (11751679_a_at) / RFU CDKN2B (11736163_a_at) / Fold change /veh CDKN2B (11736163_a_at) / RFU PRF1 (11729649_at) / Fold change /veh PRF1 (11729649_at) / RFU, ZNF638 /// ZNF638-IT1 / Fold change vs veh, ZNF638 /// ZNF638-IT1 / RFU, PANK3 / Fold change vs veh, PANK3 / RFU, SH3YL1 / Fold change vs veh, SH3YL1 / RFU, ZEB2 / Fold change vs veh, ZEB2 / RFU, NRIP1 / Fold change vs veh, NRIP1 / RFU, PTTG1IP / Fold change vs veh, PTTG1IP / RFU, CAPN2 / Fold change vs veh, CAPN2 / RFU, MED14 / Fold change vs veh, MED14 / RFU, SNORA58 / Fold change vs veh, SNORA58 / RFU, C1orf63 / Fold change vs veh, C1orf63 / RFU, LRRFIP1 / Fold change vs veh, LRRFIP1 / RFU, NDUFAF7 / Fold change vs veh, NDUFAF7 / RFU, SLC12A2 / Fold change vs veh, SLC12A2 / RFU, IBTK / Fold change vs veh, IBTK / RFU, ESF1 / Fold change vs veh, ESF1 / Fold change vs veh, TMEM50B / RFU, TAOK1 / Fold change vs veh, TAOK1 / RFU, ACBD3 / Fold change vs veh, ACBD3 / RFU, TMA16 / Fold change vs veh, TMA16 / RFU, RWDD3 / Fold change vs veh, RWDD3 / RFU, BCAT1 / Fold change vs veh, BCAT1 / RFU, EDEM3 / Fold change vs veh, EDEM3 / RFU, TMEM33 / Fold change vs veh, TMEM33 / RFU, WDR75 / Fold change vs veh, WDR75 / RFU, AHCTF1 / Fold change vs veh, AHCTF1 / RFU, TFRC / Fold change vs veh, TFRC / RFU, ZDHHC17 / Fold change vs veh, ZDHHC17 / RFU, NOM1 / Fold change vs veh, NOM1 / RFU, ARL8B / Fold change vs veh, ARL8B / RFU, ZBTB11 / Fold change vs veh, ZBTB11 / RFU, TAMM41 / Fold change vs veh, TAMM41 / RFU, KIAA1704 /// LOC100996395 / Fold change vs veh, KIAA1704 /// LOC100996395 / RFU, ING1 / Fold change vs veh, ING1 / RFU, TRMT61B / Fold change vs veh, TRMT61B / RFU, FUBP3 / Fold change vs veh, FUBP3 / RFU, TP53 / Fold change vs veh, TP53 / RFU, TNKS2 / Fold change vs veh, TNKS2 / RFU, ZFP14 / Fold change vs veh, ZFP14 / RFU, ACTR2 / Fold change vs veh, ACTR2 / RFU, PPP3R1 / Fold change vs veh, PPP3R1 / RFU, PIK3R1 / Fold change vs veh, PIK3R1 / RFU, HNRNPA1 / Fold change vs veh, HNRNPA1 / RFU, RNF170 / Fold change vs veh, RNF170 / RFU, ZNF28 / Fold change vs veh, ZNF28 / RFU, RNGTT / Fold change vs veh, RNGTT / RFU, OGT / Fold change vs veh, OGT / RFU, BRD1 / Fold change vs veh, BRD1 / RFU, MARS / Fold change vs veh, MARS / RFU, ZNF655 / Fold change vs veh, ZNF655 / RFU, FAHD1 / Fold change vs veh, FAHD1 / RFU, BDP1 / Fold change vs veh, BDP1 / RFU, LRRCC1 / Fold change vs veh, LRRCC1 / RFU, ARID1A / Fold change vs veh, ARID1A / RFU, ZNF146 / Fold change vs veh, ZNF146 / RFU, ZNF330 / Fold change vs veh, ZNF330 / RFU, GPN3 / Fold change vs veh, GPN3 / RFU, C9orf123 / Fold change vs veh, C9orf123 / RFU, N4BP2L2 / Fold change vs veh, N4BP2L2 / RFU, ARFIP1 / Fold change vs veh, ARFIP1 / RFU, FAM179B / Fold change vs veh, FAM179B / RFU, BCL10 / Fold change vs veh, BCL10 / RFU, UHRF1BP1L / Fold change vs veh, UHRF1BP1L / RFU, BET1 / Fold change vs veh, BET1 / RFU, CNOT2 / Fold change vs veh, CNOT2 / RFU, ZNF268 / Fold change vs veh, ZNF268 / Fold change vs veh, ZNF507 / RFU, DGCR2 / Fold change vs veh, DGCR2 / RFU, WDSUB1 / Fold change vs veh, WDSUB1 / Fold change vs veh, HSP90B1 /// MIR3652 / RFU, ADSS / Fold change vs veh, ADSS / RFU, GK / Fold change vs veh, GK / RFU, ZNF148 / Fold change vs veh, ZNF148 / RFU, TAF9 / Fold change vs veh, TAF9 / RFU, SLC1A5 / Fold change vs veh, SLC1A5 / RFU, SLMO2 / Fold change vs veh, SLMO2 / RFU, ABCC4 / Fold change vs veh, ABCC4 / RFU, LOC101060439 /// RAP1B / Fold change vs veh, LOC101060439 /// RAP1B / RFU, RFX7 / Fold change vs veh, RFX7 / RFU, GTPBP10 / Fold change vs veh, GTPBP10 / RFU, CNEP1R1 / Fold change vs veh, CNEP1R1 / RFU, BIVM-ERCC5 /// ERCC5 / Fold change vs veh, BIVM-ERCC5 /// ERCC5 / RFU, ILF3 / Fold change vs veh, ILF3 / RFU 11762660_at / Fold change /veh 11762660_at / RFU VCAN (11757783_s_at) / Fold change /veh VCAN (11757783_s_at) / RFU DDX43 (11728927_at) / Fold change /veh DDX43 (11728927_at) / RFU KRT8 (11758188_x_at) / Fold change /veh KRT8 (11758188_x_at) / RFU NKD1 (11759106_at) / Fold change /veh NKD1 (11759106_at) / RFU SRD5A1 (11742802_a_at) / Fold change /veh SRD5A1 (11742802_a_at) / RFU TPSAB1 /// TPSB2 (11721975_s_at) / Fold change /veh TPSAB1 /// TPSB2 (11721975_s_at) / RFU GSTM3 (11746129_a_at) / Fold change /veh GSTM3 (11746129_a_at) / RFU IL23R (11737362_x_at) / Fold change /veh IL23R (11737362_x_at) / RFU TMEM51 (11727254_a_at) / Fold change /veh TMEM51 (11727254_a_at) / RFU PIWIL2 (11732686_x_at) / Fold change /veh PIWIL2 (11732686_x_at) / RFU ORM1 (11744905_x_at) / Fold change /veh ORM1 (11744905_x_at) / RFU CCDC152 (11743942_at) / Fold change /veh CCDC152 (11743942_at) / RFU ECM1 (11717891_a_at) / Fold change /veh ECM1 (11717891_a_at) / RFU IL23R (11748794_a_at) / Fold change /veh IL23R (11748794_a_at) / RFU TNFAIP8L3 (11732012_x_at) / Fold change /veh TNFAIP8L3 (11732012_x_at) / RFU MBOAT4 (11741988_at) / Fold change /veh MBOAT4 (11741988_at) / RFU 11764193_at / Fold change /veh 11764193_at / RFU TMEM53 (11763286_at) / Fold change /veh TMEM53 (11763286_at) / RFU MAGEB2 (11727129_at) / Fold change /veh MAGEB2 (11727129_at) / RFU TMEM200A (11744735_a_at) / Fold change /veh TMEM200A (11744735_a_at) / RFU CCDC152 (11751479_a_at) / Fold change /veh CCDC152 (11751479_a_at) / RFU FAM211A (11726209_a_at) / Fold change /veh FAM211A (11726209_a_at) / RFU RGS16 (11746705_a_at) / Fold change /veh RGS16 (11746705_a_at) / RFU VCAN (11755009_s_at) / Fold change /veh VCAN (11755009_s_at) / RFU RHOB (11743442_s_at) / Fold change /veh RHOB (11743442_s_at) / RFU RGS16 (11720943_a_at) / Fold change /veh RGS16 (11720943_a_at) / RFU RGS16 (11720944_at) / Fold change /veh RGS16 (11720944_at) / RFU, VPS4B / Fold change vs veh, VPS4B / RFU, CREB1 / Fold change vs veh, CREB1 / RFU, DNAJC13 / Fold change vs veh, DNAJC13 / RFU, GNAQ / Fold change vs veh, GNAQ / RFU, CDK5R1 / Fold change vs veh, CDK5R1 / RFU, ZRANB3 / Fold change vs veh, ZRANB3 / RFU, CUL4A / Fold change vs veh, CUL4A / RFU, CCNY / Fold change vs veh, CCNY / RFU, UFL1 / Fold change vs veh, UFL1 / RFU, COG3 / Fold change vs veh, COG3 / RFU, DIAPH2 / Fold change vs veh, DIAPH2 / RFU, SKA2 / Fold change vs veh, SKA2 / RFU, AFF3 / Fold change vs veh, AFF3 / RFU, LMF1 / Fold change vs veh, LMF1 / RFU, IPO11 / Fold change vs veh, IPO11 / RFU, DFFB / Fold change vs veh, DFFB / RFU, FOXP1 / Fold change vs veh, FOXP1 / RFU, CARD8 / Fold change vs veh, CARD8 / RFU, STRN3 / Fold change vs veh, STRN3 / RFU, ADK / Fold change vs veh, ADK / RFU, RASSF2 / Fold change vs veh, RASSF2 / RFU, WIPF1 / Fold change vs veh, WIPF1 / RFU, LARP1B / Fold change vs veh, LARP1B / RFU, RASA1 / Fold change vs veh, RASA1 / RFU, RB1 / Fold change vs veh, RB1 / RFU, PPFIA1 / Fold change vs veh, PPFIA1 / RFU, MAT2A / Fold change vs veh, MAT2A / RFU, CCT5 / Fold change vs veh, CCT5 / RFU, WDR92 / Fold change vs veh, WDR92 / RFU, CUX1 / Fold change vs veh, CUX1 / RFU, TTC7A / Fold change vs veh, TTC7A / RFU, TMEM135 / Fold change vs veh, TMEM135 / RFU, DEPTOR / Fold change vs veh, DEPTOR / RFU, CPM / Fold change vs veh, CPM / RFU, DNAJB6 / Fold change vs veh, DNAJB6 / RFU, CACNA2D3 / Fold change vs veh, CACNA2D3 / RFU, DTX4 / Fold change vs veh, DTX4 / RFU, TFCP2 / Fold change vs veh, TFCP2 / RFU, GMCL1 /// GMCL1P1 / Fold change vs veh, GMCL1 /// GMCL1P1 / RFU, AEBP2 / Fold change vs veh, AEBP2 / RFU, SNHG1 /// SNORD22 /// SNORD25 /// SNORD26 /// SNORD27 /// SNORD28 /// SNORD29 /// SNORD31 / Fold change vs veh, SNHG1 /// SNORD22 /// SNORD25 /// SNORD26 /// SNORD27 /// SNORD28 /// SNORD29 /// SNORD31 / Fold change (Aza/veh), C12orf56 (ProbeSet 11735607_a_at) / Fold change (ACY-1035/veh), C12orf56 (ProbeSet 11735607_a_at) / Fold change (Aza/veh), FGFR1OP (ProbeSet 11751329_s_at) / Fold change (ACY-1035/veh), FGFR1OP (ProbeSet 11751329_s_at) / Fold change (Aza/veh), VPS36 (ProbeSet 11739960_a_at) / Fold change (ACY-1035/veh), VPS36 (ProbeSet 11739960_a_at) / RFU SYPL1 (11715823_x_at) / Fold change /veh SYPL1 (11715823_x_at) / RFU IGFBP7 (11715501_s_at) / Fold change /veh IGFBP7 (11715501_s_at) / RFU REEP3 (11722064_at) / Fold change /veh REEP3 (11722064_at) / RFU IGLL1 (11728026_x_at) / Fold change /veh IGLL1 (11728026_x_at): dose or concentration left out as unconfirmed
Settings: ProbeSet 11743580_s_at; LIST B

SMILES: Nc1ncn([C@@H]2O[C@H](CO)[C@@H](O)[C@H]2O)c(=O)n1 [azacitidine]
- RFU, ACTR2: 932.68 RFU
